Structures can show the parent of a compound that is named as a salt.
Assays:
Type in all cases: biochemical
nitrile hydratase [1] = experiment: Amide formation reaction from acrylonitrile with Rhodococcus rhodochrous J-1 bacterial cells, acetaldehyde in acrylonitrile (Examples 1-4); conditions: for Concentration ratio (4 hr) (acrylonitrile concentration with aldehyde / without aldehyde x100): 20° C.
Procedure: Rhodococcus rhodochrous J-1 strain (FERMBP-1478) having nitrile hydratase activity was aerobically cultured in a medium (pH7.0) containing glucose (2.0%), urea (1.0%), peptone (0.5%), yeast extract (0.3%) and cobalt chloride (0.05%) at 30° C. The medium was washed with a 50 mM phosphate buffer (pH7.0) to obtain a bacterial suspension (3% on a dry-cell basis).
A cyan 1000-ppm standard solution (manufactured by Hayashi Pure Chemical Ind., Ltd.) was added to acrylonitrile for industrial use (manufactured by Mitsubishi Chemical Corporation) such that the hydrocyanic acid concentration became 2.1 ppm on a weight basis. […]
To a glass case (internal volume: 13.5 ml) with a lid, 3.15 g of a phosphate buffer (pH7.0), and 3.15 g of a diluted bacterial cell solution, which was prepared by diluting bacterial cells as mentioned above with the phosphate buffer (pH7.0) such that initial activity thereof in a reaction solution became 1460 U, were added. The mixture was stirred while controlling the temperature at 20° C. […] Four hours later, the reaction solution was collected and the concentration of acrylonitrile was measured by gas chromatography (column: PoraPack-PS (manufactured by Waters Corporation), 1 m, 210° C., carrier gas: helium, detector: FID).
(§1) The concentration ratio can be obtained in accordance with the following expression:
(§2) Concentration ratio [%]=(acrylonitrile concentration of the case where aldehyde was added/the case where aldehyde was not added)×100

nitrile hydratase [2] = experiment: Test Example 1: effect of compounds on the amide formation reaction with Rhodococcus rhodochrous J-1 bacterial cells; conditions: hydrocyanic acid 2.0 ppm in acrylonitrile, 25° C.
Procedure: (§3) Acrylonitrile was prepared so as to have a hydrocyanic acid concentration of 2.0 ppm.
A diluted solution containing an aldehyde compound diluted with a phosphate buffer (pH7.0) so as to obtain a concentration of 5 ppm or 10 ppm in the reaction solution, was added, and finally the phosphate buffer (pH7.0) was added to obtain a total amount of 6.2 g. The obtained solution was stirred while the temperature thereof was controlled at 25° C. To this solution, acrylonitrile (4.8 mL (acrylamide 50% equivalent, 38 wt %)) was added to initiate a reaction. At the time points of 3.5, 4.5, 5.0, and 6.0 hours later, the reaction solution was collected and the concentration of acrylonitrile was measured by gas chromatography (column: PoraPack-PS (manufactured by Waters Corporation), 1 m, 210° C., carrier gas: helium, detector: FID).
as §1, §2

[3] = system: nitrile hydratase derived from Pseudonocardia thermophila JCM3095 strain; experiment: Example 6: amide compound formation reaction by transformant (ATCC12674/pSJ-N02A); conditions: propionaldehyde 7 ppm in reaction solution, propionaldehyde/cyan 10.7 mol/mol, hydrocyanic acid 2.0 ppm in acrylonitrile, 25° C.
Procedure: (§4) The transformant (ATCC12674/pSJ-N02A) obtained in the above step was inoculated in MYK medium (50 μg/ml kanamycin) and subjected to shaking culture performed at 30° C. for two days. The cultured transformant (1%) was inoculated in GGPK medium (1.5% glucose, 1% monosodium glutamate, 0.1% yeast extract, 0.05% K2HPO4, 0.05% KH2PO4, 0.05% […], 1% CoCl2, 0.1% urea, 50 μg/ml kanamycin, pH7.2). Shaking culture was carried out at 30° C. for three days and bacterial cells were centrifugally collected. Thereafter, the bacterial cells were washed with a 100 mM phosphate buffer (pH7.0) and a bacterial suspension was prepared.
According to Example 1, the effect of propionaldehyde on amide compound formation reaction by transformant (ATCC12674/pSJ-N02A) was evaluated.
Acrylonitrile was prepared so as to have a hydrocyanic acid concentration of 2.0 ppm. […]

[4] = system: nitrile hydratase derived from Rhodococcus rhodochrous M8 strain; experiment: Example 5: amide compound formation reaction by M8 strain-derived transformant (ATCC12674/pSJ-N01A); conditions: hydrocyanic acid 2.0 ppm in acrylonitrile, 25° C.
Procedure: as §4, with “(ATCC12674/pSJ-N01A)” for “(ATCC12674/pSJ-N02A)”
According to Example 1, the effect of propionaldehyde on amide compound formation reaction by M8 strain-derived transformant (ATCC12674/pSJ-N01A) was evaluated.
as §3
To a glass case (internal volume: 13.5 ml) with a lid, 1.00 g of a diluted bacterial-cell solution, which was prepared by diluting bacterial cells as mentioned above with the phosphate buffer (pH7.0) such that the initial amount of the bacterial cells in a reaction solution became 5.6 mg; and a diluted solution, which was prepared by diluting each aldehyde compound with a phosphate buffer (pH7.0) so as to obtain a concentration thereof of 10 ppm, 25 ppm or 50 ppm in a reaction solution, were added; and finally, a phosphate buffer (pH7.0) was added up to a total amount of 9.0 g. The solution obtained was stirred while the temperature thereof was controlled at 25° C. To this solution, acrylonitrile (1.0 g) was added to initiate a reaction. Six hours later, the reaction solution was collected and the concentration of acrylonitrile was measured by gas chromatography (column: PoraPack-PS (manufactured by Waters Corporation), 1 m, 210° C., carrier gas: helium, detector: FID).
as §1, §2

[5] = 5 ppm addition in reaction solution
[6] = 10 ppm addition in reaction solution

Row | Compound | Concentration Ratio (3.5 hr) (nitrile hydratase [2]; [5]) [%] | Concentration Ratio (6 hr) (nitrile hydratase [2]; [5]) [%] | further results
1 | CC=O [No. 2, acetaldehyde] | 7.5 | 9.2 | Concentration ratio (4 hr) (acrylonitrile concentration with aldehyde / without aldehyde x100) (nitrile hydratase [1]; Example 1: hydrocyanic acid 2.1 ppm, acetaldehyde 10 ppm in acrylonitrile, acetaldehyde/cyan 2.9 mol/mol): 38.8%; Concentration ratio (4 hr) (acrylonitrile concentration with aldehyde / without aldehyde x100) (nitrile hydratase [1]; Example 2: hydrocyanic acid 2.1 ppm, acetaldehyde 6 ppm in acrylonitrile, acetaldehyde/cyan 1.8 mol/mol): 76.1%; Concentration ratio (4 hr) (acrylonitrile concentration with aldehyde / without aldehyde x100) (nitrile hydratase [1]; Example 3: hydrocyanic acid 2.1 ppm, acetaldehyde 3 ppm in acrylonitrile, acetaldehyde/cyan 0.9 mol/mol): 92.5%; Concentration ratio (4 hr) (acrylonitrile concentration with aldehyde / without aldehyde x100) (nitrile hydratase [1]; Example 4: hydrocyanic acid 1.1 ppm, acetaldehyde 10 ppm in acrylonitrile, acetaldehyde/cyan 5.6 mol/mol): 9.8%; rate of a reaction that converts acrylonitrile to an amide compound (nitrile hydratase [1]; compared to Comparative Example without acetaldehyde, hydrocyanic acid 2.1 ppm or 1.1 ppm): high
2 | CCC=O [No. 3, propionaldehyde] | 2.2 | 1.4 | Concentration Ratio (6 hr) [3]: 33.3%; Concentration Ratio (6 hr) ([4]; propionaldehyde 10 ppm in reaction solution, propionaldehyde/cyan 22.9 mol/mol): 82.7%; Concentration Ratio (6 hr) ([4]; propionaldehyde 25 ppm in reaction solution, propionaldehyde/cyan 57.1 mol/mol): 70.4%; Concentration Ratio (6 hr) ([4]; propionaldehyde 50 ppm in reaction solution, propionaldehyde/cyan 114.3 mol/mol): 60.0%
3 | CCCC=O [No. 4, butyraldehyde] | 3.1 | 2.7 | –
4 | CCCCCC=O [No. 5, hexanal] | 83.9 | 17.8 | –
5 | CCCCCCC=O [No. 6, heptanal] | 62.1 | 17.6 | –
6 | CCCCCCCC=O [No. 7, octanal] | 106.4 | 117.5 | Concentration Ratio (3.5 hr) (nitrile hydratase [2]; [6]): 72.9%; Concentration Ratio (6 hr) (nitrile hydratase [2]; [6]): 11.6%
7 | CCCCCCCCC=O [No. 8, nonanal] | 97.1 | 81.4 | Concentration Ratio (3.5 hr) (nitrile hydratase [2]; [6]): 80.1%; Concentration Ratio (6 hr) (nitrile hydratase [2]; [6]): 35.0%
8 | CCCCCCCCCC=O [No. 9, decanal] | 96.1 | 67.0 | –
9 | O=CO [No. 10, formic acid, reference compound] | 99.6 | 88.9 | Concentration Ratio (3.5 hr) (nitrile hydratase [2]; [6]): 95.1%; Concentration Ratio (6 hr) (nitrile hydratase [2]; [6]): 94.9%
10 | O=CC=O [No. 11, dialdehyde oxalate] | 33.4 | 12.2 | –
11 | OC[C@@H](O)[C@@H](O)CO [No. 12, meso-erythritol, reference compound] | 103.3 | 118.2 | Concentration Ratio (3.5 hr) (nitrile hydratase [2]; [6]): 97.8%; Concentration Ratio (6 hr) (nitrile hydratase [2]; [6]): 97.3%
12 | O=Cc1ccccc1 [No. 15, benzaldehyde] | 92.0 | 66.2 | –
13 | O=CC=Cc1ccccc1 [No. 16, cinnamaldehyde] | 97.0 | 102.6 | Concentration Ratio (3.5 hr) (nitrile hydratase [2]; [6]): 99.2%; Concentration Ratio (6 hr) (nitrile hydratase [2]; [6]): 87.1%
14 | C=C(C)C1CC=C(C=O)CC1 (stereo not shown) [No. 17, perillaldehyde] | 82.8 | 59.6 | –
15 | COc1cc(C=O)ccc1O [No. 18, vanillin] | 92.9 | 71.7 | –
16 | CC1NC(C)NC(C)N1 (stereo not shown) [No. 19, acetaldehyde ammonia] | 30.0 | 3.3 | –
17 | C1N2CN3CN1CN(C2)C3 [No. 20, hexamethylenetetramine] | 0.3 | 2.4 | –
18 | paraformaldehyde [No. 14] | 1.1 | 1.1 | –
